pEC50: −log10 of the molar value. Residues, ends and D or L forms follow the SMILES beside them.
Columns and labels:
Orexin receptor type 2 = target: T1, Orexin receptor type 2 (Homo sapiens, UniProt O43614); assay: Effective agonist concentration to the human Orexin receptor type 2 was determined using the Xlfit program; format: functional
T1 sequence (O43614 whole entry): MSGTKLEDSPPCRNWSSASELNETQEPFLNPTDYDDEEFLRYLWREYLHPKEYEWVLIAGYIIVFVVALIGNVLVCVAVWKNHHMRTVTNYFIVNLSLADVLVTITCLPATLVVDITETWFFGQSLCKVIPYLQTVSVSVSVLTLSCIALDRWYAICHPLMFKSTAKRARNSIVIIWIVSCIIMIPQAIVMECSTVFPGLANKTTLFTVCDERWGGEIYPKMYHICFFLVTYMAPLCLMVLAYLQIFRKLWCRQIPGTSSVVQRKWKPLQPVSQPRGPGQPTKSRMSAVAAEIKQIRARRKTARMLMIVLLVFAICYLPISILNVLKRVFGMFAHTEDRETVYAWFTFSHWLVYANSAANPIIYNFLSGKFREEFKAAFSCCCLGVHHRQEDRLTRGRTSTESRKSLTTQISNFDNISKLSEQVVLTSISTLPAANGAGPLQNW

[1] = target: T2, Orexin/Hypocretin receptor type 1 (Homo sapiens, UniProt O43613); assay: Effective agonist concentration to human orexin receptor type 1 determined using the Xlfit program; format: functional
T2 sequence (O43613 whole entry): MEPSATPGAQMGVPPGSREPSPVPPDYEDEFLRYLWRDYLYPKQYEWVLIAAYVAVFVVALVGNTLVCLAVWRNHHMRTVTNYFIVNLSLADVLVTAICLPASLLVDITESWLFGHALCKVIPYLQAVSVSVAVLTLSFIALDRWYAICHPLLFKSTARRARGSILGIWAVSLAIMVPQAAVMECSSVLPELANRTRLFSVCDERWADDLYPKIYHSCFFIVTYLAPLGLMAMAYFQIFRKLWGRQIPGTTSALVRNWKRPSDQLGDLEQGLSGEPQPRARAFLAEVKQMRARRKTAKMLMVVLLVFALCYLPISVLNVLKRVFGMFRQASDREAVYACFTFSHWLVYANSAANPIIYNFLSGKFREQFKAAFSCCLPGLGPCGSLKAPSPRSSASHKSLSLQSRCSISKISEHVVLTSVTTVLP

[2] = Ratio of orexin-1 receptor to orexin-2 receptor in human

CC[C@H](C)[C@H](NC(=O)CNC(=O)[C@H](C)NC(=O)[C@H](C)NC(=O)[C@H](Cc1c[nH]cn1)NC(=O)[C@H](CC(N)=O)NC(=O)CNC(=O)[C@H](C)NC(=O)CNC(=O)[C@H](Cc1c[nH]cn1)NC(=O)[C@H](CC(C)C)NC(=O)[C@H](CC(C)C)NC(=O)[C@H](CCC(=O)O)NC(=O)[C@H](Cc1ccc(O)cc1)NC(=O)[C@H](CC(C)C)NC(=O)[C@H](CCCN=C(N)N)NC(=O)[C@H](CS)NC(=O)[C@H](CO)NC(=O)[C@H](CS)NC(=O)[C@@H](NC(=O)[C@H](CCCCN)NC(=O)[C@H](CCC(N)=O)NC(=O)[C@H](CCCN=C(N)N)NC(=O)[C@H](CS)NC(=O)[C@H](CS)NC(=O)[C@H](CC(=O)O)NC(=O)[C@@H]1CCCN1C(=O)[C@H](CC(C)C)NC(=O)[C@@H]1CCCN1)[C@@H](C)O)C(=O)N[C@@H](CC(C)C)C(=O)N[C@H](C(=O)N[C@@H](CC(C)C)C(=O)O)[C@@H](C)O
pEC50 (Orexin receptor type 2): 5.60
pEC50 [1]: 6.07
Ratio [2]: 0.3

CC[C@H](C)[C@H](NC(=O)CNC(=O)[C@H](C)NC(=O)[C@H](C)NC(=O)[C@H](Cc1c[nH]cn1)NC(=O)[C@H](CC(N)=O)NC(=O)CNC(=O)[C@H](C)NC(=O)CNC(=O)[C@H](Cc1c[nH]cn1)NC(=O)[C@H](CC(C)C)NC(=O)[C@H](CC(C)C)NC(=O)[C@H](CCC(=O)O)NC(=O)[C@H](Cc1ccc(O)cc1)NC(=O)[C@H](CC(C)C)NC(=O)[C@H](CCCN=C(N)N)NC(=O)[C@H](CS)NC(=O)[C@H](CO)NC(=O)[C@H](CS)NC(=O)[C@@H](NC(=O)[C@H](CCCCN)NC(=O)[C@H](CCC(N)=O)NC(=O)[C@H](CCCN=C(N)N)NC(=O)[C@H](CS)NC(=O)[C@@H](N)CS)[C@@H](C)O)C(=O)N[C@@H](CC(C)C)C(=O)N[C@H](C(=O)N[C@@H](CC(C)C)C(=O)O)[C@@H](C)O (H-CCRQKTCSCRLYELLHGAGNHAAGILTL-OH)
pEC50 (Orexin receptor type 2): 6.10
Ratio [2]: 1

CC[C@H](C)[C@H](NC(=O)CNC(=O)[C@H](C)NC(=O)[C@H](C)NC(=O)[C@H](Cc1c[nH]cn1)NC(=O)[C@H](CC(N)=O)NC(=O)CNC(=O)[C@H](CO)NC(=O)[C@H](C)NC(=O)[C@H](CCC(N)=O)NC(=O)[C@H](CC(C)C)NC(=O)[C@H](CC(C)C)NC(=O)[C@H](CCCN=C(N)N)NC(=O)[C@H](CCC(N)=O)NC(=O)[C@H](CC(C)C)NC(=O)[C@H](CCCN=C(N)N)NC(=O)CNC(=O)[C@H](CCC(N)=O)NC(=O)[C@H](C)NC(=O)CN)C(=O)N[C@@H](CC(C)C)C(=O)N[C@H](C(=O)N[C@@H](CCSC)C(=O)O)[C@@H](C)O (H-GAQGRLQRLLQASGNHAAGILTM-OH)
pEC50 (Orexin receptor type 2): 6.08
Ratio [2]: 8.9

CC[C@H](C)[C@H](NC(=O)CNC(=O)[C@H](C)NC(=O)[C@H](C)NC(=O)[C@H](Cc1c[nH]cn1)NC(=O)[C@H](CC(N)=O)NC(=O)CNC(=O)[C@H](CO)NC(=O)[C@H](C)NC(=O)[C@H](CCC(N)=O)NC(=O)[C@H](CC(C)C)NC(=O)[C@H](CC(C)C)NC(=O)[C@H](CCCN=C(N)N)NC(=O)[C@H](CCC(N)=O)NC(=O)[C@H](CC(C)C)NC(=O)[C@H](CCCN=C(N)N)NC(=O)CNC(=O)[C@@H]1CCCN1C(=O)[C@H](CC(C)C)NC(=O)CN)C(=O)N[C@@H](CC(C)C)C(=O)N[C@H](C(=O)N[C@@H](CCSC)C(=O)O)[C@@H](C)O (H-GLPGRLQRLLQASGNHAAGILTM-OH)
pEC50 (Orexin receptor type 2): 6.80
Ratio [2]: 7.5

CC[C@H](C)[C@H](NC(=O)CNC(=O)[C@H](C)NC(=O)[C@H](C)NC(=O)[C@H](Cc1c[nH]cn1)NC(=O)[C@H](CC(N)=O)NC(=O)CNC(=O)[C@H](CO)NC(=O)[C@H](C)NC(=O)[C@H](CCC(N)=O)NC(=O)[C@H](CC(C)C)NC(=O)[C@H](CC(C)C)NC(=O)[C@H](CCCN=C(N)N)NC(=O)[C@H](CCC(N)=O)NC(=O)[C@H](CC(C)C)NC(=O)[C@H](CCCN=C(N)N)NC(=O)[C@H](C)NC(=O)[C@H](CCC(N)=O)NC(=O)[C@H](CC(C)C)NC(=O)CN)C(=O)N[C@@H](CC(C)C)C(=O)N[C@H](C(=O)N[C@@H](CCSC)C(=O)O)[C@@H](C)O (H-GLQARLQRLLQASGNHAAGILTM-OH)
pEC50 (Orexin receptor type 2): 6.68
Ratio [2]: 11

CC[C@H](C)[C@H](NC(=O)CNC(=O)[C@H](C)NC(=O)[C@H](C)NC(=O)[C@H](Cc1c[nH]cn1)NC(=O)[C@H](CC(N)=O)NC(=O)CNC(=O)[C@H](CO)NC(=O)[C@H](C)NC(=O)[C@H](CCC(N)=O)NC(=O)[C@H](CC(C)C)NC(=O)[C@H](C)NC(=O)[C@H](CCCN=C(N)N)NC(=O)[C@H](CCC(N)=O)NC(=O)[C@H](CC(C)C)NC(=O)[C@H](CCCN=C(N)N)NC(=O)CNC(=O)[C@H](CCC(N)=O)NC(=O)[C@H](CC(C)C)NC(=O)CN)C(=O)N[C@@H](CC(C)C)C(=O)N[C@H](C(=O)N[C@@H](CCSC)C(=O)O)[C@@H](C)O (H-GLQGRLQRALQASGNHAAGILTM-OH)
pEC50 (Orexin receptor type 2): 5.64
pEC50 [1]: 5.23
Ratio [2]: 2.6

CC[C@H](C)[C@H](NC(=O)CNC(=O)[C@H](C)NC(=O)[C@H](C)NC(=O)[C@H](Cc1c[nH]cn1)NC(=O)[C@H](CC(N)=O)NC(=O)CNC(=O)[C@H](CO)NC(=O)[C@H](C)NC(=O)[C@@H]1CCCN1C(=O)[C@H](CC(C)C)NC(=O)[C@H](CC(C)C)NC(=O)[C@H](CCCN=C(N)N)NC(=O)[C@H](CCC(N)=O)NC(=O)[C@H](CC(C)C)NC(=O)[C@H](CCCN=C(N)N)NC(=O)CNC(=O)[C@H](CCC(N)=O)NC(=O)[C@H](CC(C)C)NC(=O)CN)C(=O)N[C@@H](CC(C)C)C(=O)N[C@H](C(=O)N[C@@H](CCSC)C(=O)O)[C@@H](C)O (H-GLQGRLQRLLPASGNHAAGILTM-OH)
pEC50 (Orexin receptor type 2): 5.61
pEC50 [1]: 5.02
Ratio [2]: 3.8

CC[C@H](C)[C@H](NC(=O)CNC(=O)[C@H](C)NC(=O)[C@H](C)NC(=O)[C@H](Cc1c[nH]cn1)NC(=O)[C@H](CC(N)=O)NC(=O)CNC(=O)[C@H](CO)NC(=O)[C@H](C)NC(=O)[C@H](CCC(N)=O)NC(=O)[C@H](CC(C)C)NC(=O)[C@H](CC(C)C)NC(=O)[C@H](CCCN=C(N)N)NC(=O)[C@H](CCC(N)=O)NC(=O)[C@H](CC(C)C)NC(=O)[C@H](CCCN=C(N)N)NC(=O)CNC(=O)[C@H](CCC(N)=O)NC(=O)[C@H](CC(C)C)NC(=O)CN)C(=O)N[C@@H](CC(C)C)C(=O)N[C@@H](C)C(=O)N[C@@H](CCSC)C(=O)O (H-GLQGRLQRLLQASGNHAAGILAM-OH)
pEC50 (Orexin receptor type 2): 6.12
pEC50 [1]: < 3.00
Ratio [2]: > 1350

CC[C@H](C)[C@H](NC(=O)CNC(=O)[C@H](C)NC(=O)[C@H](C)NC(=O)[C@H](Cc1c[nH]cn1)NC(=O)[C@H](CC(N)=O)NC(=O)CNC(=O)[C@H](CO)NC(=O)[C@H](C)NC(=O)[C@H](CCC(N)=O)NC(=O)[C@H](CC(C)C)NC(=O)[C@H](CC(C)C)NC(=O)[C@H](CCCN=C(N)N)NC(=O)[C@H](CCC(N)=O)NC(=O)[C@H](CC(C)C)NC(=O)[C@H](CCCN=C(N)N)NC(=O)[C@@H]1CCCN1C(=O)[C@H](CCC(N)=O)NC(=O)[C@H](CC(C)C)NC(=O)CN)C(=O)N[C@@H](CC(C)C)C(=O)N[C@H](C(=O)N[C@@H](CCSC)C(=O)O)[C@@H](C)O (H-GLQPRLQRLLQASGNHAAGILTM-OH)
pEC50 (Orexin receptor type 2): 6.72
Ratio [2]: 23.5

CC[C@H](C)[C@H](NC(=O)CNC(=O)[C@H](C)NC(=O)[C@H](C)NC(=O)[C@H](Cc1c[nH]cn1)NC(=O)[C@H](CC(N)=O)NC(=O)CNC(=O)[C@H](C)NC(=O)CNC(=O)[C@H](Cc1c[nH]cn1)NC(=O)[C@H](CC(C)C)NC(=O)[C@H](CC(C)C)NC(=O)[C@H](CCC(=O)O)NC(=O)[C@H](Cc1ccc(O)cc1)NC(=O)[C@H](CC(C)C)NC(=O)[C@H](CCCN=C(N)N)NC(=O)[C@H](CS)NC(=O)[C@H](CO)NC(=O)[C@H](CS)NC(=O)[C@@H](NC(=O)[C@H](CCCCN)NC(=O)[C@H](CCC(N)=O)NC(=O)[C@H](CCCN=C(N)N)NC(=O)[C@H](CS)NC(=O)[C@H](CS)NC(=O)[C@H](CC(=O)O)NC(=O)[C@@H]1CCCN1)[C@@H](C)O)C(=O)N[C@@H](CC(C)C)C(=O)N[C@H](C(=O)N[C@@H](CC(C)C)C(=O)O)[C@@H](C)O (H-PDCCRQKTCSCRLYELLHGAGNHAAGILTL-OH)
pEC50 (Orexin receptor type 2): 6.40
Ratio [2]: 1.6

CC[C@H](C)[C@H](NC(=O)CNC(=O)[C@H](C)NC(=O)[C@H](C)NC(=O)[C@H](Cc1c[nH]cn1)NC(=O)[C@H](C)NC(=O)CNC(=O)[C@H](CO)NC(=O)[C@H](C)NC(=O)[C@H](CCC(N)=O)NC(=O)[C@H](CC(C)C)NC(=O)[C@H](CC(C)C)NC(=O)[C@H](CCCN=C(N)N)NC(=O)[C@H](CCC(N)=O)NC(=O)[C@H](CC(C)C)NC(=O)[C@H](CCCN=C(N)N)NC(=O)CNC(=O)[C@H](CCC(N)=O)NC(=O)[C@H](CC(C)C)NC(=O)CN)C(=O)N[C@@H](CC(C)C)C(=O)N[C@H](C(=O)N[C@@H](CCSC)C(=O)O)[C@@H](C)O (stereo in doubt; form 2)
Ratio [2]: 6.8

From ChEMBL document CHEMBL1148480, “Structure-activity studies of orexin a and orexin B at the human orexin 1 and orexin 2 receptors led to orexin 2 receptor selective and orexin 1 receptor preferring ligands” (J Med Chem, 2004)
